Laboratory results published in US20050215544A1, “Methods of treating HIV infection” (priority 2004, published 2005).

Assays:
[1] = tested on: HIV-1 LAI; test: microbe, parasite or virus in culture; conditions: Human immunodeficiency virus 1, MT2, 120 h
Protocol: (§1) Virus and cell lines. The T-cell lines, MT-2 and PM-1 were obtained through the AIDS Research and Reference Reagent Program, NIAID, and were contributed by Dr. D. Richman and Dr. R. Gallo, respectively. Both cell lines were cultured in RPMI 1640 medium supplemented with 10% fetal bovine serum, 2 mM L-glutamine and sub-cultured twice a week. The LAI strain of HIV-1 was obtained from the Fred Hutchinson Cancer Research Center, and the Bal strain was from NIH. Both virus stocks were amplified and titered in MT-2 cells (LAI) and PM-1 cells (Bal) using a virus infectivity assay.
(§2) Drug Susceptibility and Cytotoxicity Assays. For drug susceptibility assays, MT-2 cells were infected with HIV-1 LAI (or PM-1 cells with HIV-1 Bal) at an MOI of 0.005, and seeded into 96-well microtiter plates ([…] cells/ml) containing serial dilutions of test compounds. […] Each drug ratio consisted of an array of 3-fold serial dilutions, and was performed in quadruplicate. The plates were incubated at 37° C./5% CO2. The MT-2 cells infected with HIV-1 LAI were incubated for 5 days. On day-five post-infection, 20 μl from each well was harvested and quantitated by a reverse transcriptase (RT) assay, or in samples involving non-nucleoside RT inhibitors, an MTS assay. The PM-1 cells infected with HIV-1 Bal and used for studying the combinations with CCR5 inhibitors were incubated for six days. On day-six post-infection, 20 μl from each well was harvested, 20- and 50-fold diluted and quantitated by p24 assay. Cytotoxicity assays were performed using uninfected cells, exposed to the same drug combinations, and incubated for six days. Cell viability was determined by an MTS assay. The CC50 values were calculated by using the exponential form of the median effect equation as mentioned below for calculation of EC50.
(§3) In this equation, Fa stands for “fraction affected,” and represents the fraction of the viral load that has been inactivated. […] ED50 is drug concentration that is expected to reduce the amount of virus by 50%, and m is a parameter that reflects the slope of the concentration-response curve.
In carrying out the combination experiments below, the EC50 for Compound 1 and each comparator compound was determined during the course of each study, and used in the subsequent data analysis.

[2] = tested on: HIV-1 LAI; test: Two-drug combination antiviral assay with Compound 1 (combination indices, Chou and Rideout); type: cell-based; conditions: combination with Compound 1; for Combination Indices at 50% HIV Inhibition (Confidence Interval) / Combination Indices at 75% HIV Inhibition (Confidence Interval) / Combination Indices at 90% HIV Inhibition (Confidence Interval): 95% CI in parenthesis; for Overall Result of two-drug combination: all ratios and inhibition levels
Protocol: as §1, §2
Analysis of Drug Combination Effects. For determination of CI values, drugs were diluted in a fixed ratio and multiple ratios were analyzed. The drug serial dilutions spanned a range of concentrations near the EC50 value of each compound, so that equivalent antiviral activities could be compared. Concentration-response curves were estimated for each individual drug and every combination using the median-effect equation. The equation was fit using a nonlinear regression routine (Proc Nlin) in PC SAS version 8.01 (SAS Institute Inc., SAS Version 8.01, Cary, NC: SAS Institute Inc., 1990).
as §3
To assess antiviral effects of different drug combination treatments, combination indices (CIs) were calculated according to Chou and Rideout. The combination index was computed as CI=[D]1/[Dm]1+[D]2/[Dm]2
In this equation [Dm]1 and [Dm]2 are the concentrations of drugs that would individually produce a specific level of effect, while [D]1 and [D]2 are the concentrations of drugs in combination that would produce the same level of effect.
Theoretically, additivity is implied if the CI is equal to one, synergy if the CI is less than one, and antagonism if the CI is greater than one. […] At best, we can construct a range that contains the likely values for the CI, given the noise in the data. In this report, these ranges are reported in parentheses next to each point estimate of the CI. […] If the range fell entirely above 1.0, we would infer antagonistic behavior. If the range were to include 1.0, we would infer additivity.

[3] = EC50 ratio 1:1 (Compound 1 to comparator)
[4] = EC50 ratio 1:2.5 (Compound 1 to comparator)
[5] = EC50 ratio 2.5:1 (Compound 1 to comparator)

SMILES	EC50 [1] [nM]	Combination Indices at 50% HIV Inhibition (Confidence Interval) [2, 3]	Combination Indices at 75% HIV Inhibition (Confidence Interval) [2, 3]	Combination Indices at 90% HIV Inhibition (Confidence Interval) [2, 3]	Combination Indices at 50% HIV Inhibition (Confidence Interval) [2, 4]	Combination Indices at 75% HIV Inhibition (Confidence Interval) [2, 4]	Combination Indices at 90% HIV Inhibition (Confidence Interval) [2, 4]	Combination Indices at 50% HIV Inhibition (Confidence Interval) [2, 5]	Combination Indices at 75% HIV Inhibition (Confidence Interval) [2, 5]	Combination Indices at 90% HIV Inhibition (Confidence Interval) [2, 5]	Overall Result of two-drug combination [2]	Overall Result of two-drug combination ([2]; listed as nevirapine)
Cc1ccnc2c1NC(=O)c1cccnc1N2C1CC1 [Nevirapine]	127	0.13 (0.11, 0.16)	0.17 (0.13, 0.22)	0.24 (0.14, 0.33)	0.32 (0.23, 0.40)	0.72 (0.45, 0.99)	1.69 (0.63, 2.75)	0.37 (0.29, 0.44)	0.76 (0.54, 0.98)	1.60 (0.86, 2.34)	Additive-	additive to synergistic
CC(C)c1nc(CN(C)C(=O)N[C@H](C(=O)N[C@@H](Cc2ccccc2)C[C@H](O)[C@H](Cc2ccccc2)NC(=O)OCc2cncs2)C(C)C)cs1 [Ritonavir]	5	0.25 (0.19, 0.31)	0.38 (0.26, 0.50)	0.58 (0.28, 0.88)	0.16 (0.12, 0.20)	0.25 (0.18, 0.32)	0.40 (0.19, 0.60)	0.40 (0.23, 0.57)	0.66 (0.29, 1.04)	1.11 (0.05, 2.17)	Additive-	–

Second part, led by results:

EC50 [1] [nM]	SMILES	Combination Indices at 50% HIV Inhibition (Confidence Interval) [2, 3]	Combination Indices at 75% HIV Inhibition (Confidence Interval) [2, 3]	Combination Indices at 90% HIV Inhibition (Confidence Interval) [2, 3]	Combination Indices at 50% HIV Inhibition (Confidence Interval) [2, 4]	Combination Indices at 75% HIV Inhibition (Confidence Interval) [2, 4]	Combination Indices at 90% HIV Inhibition (Confidence Interval) [2, 4]	Combination Indices at 50% HIV Inhibition (Confidence Interval) [2, 5]	Combination Indices at 75% HIV Inhibition (Confidence Interval) [2, 5]	Combination Indices at 90% HIV Inhibition (Confidence Interval) [2, 5]	Overall Result of two-drug combination [2]	Overall Result of two-drug combination ([2]; listed as nevirapine)
30	Nc1ccn([C@@H]2CS[C@H](CO)O2)c(=O)n1 [Lamivudine]	0.57 (0.41, 0.73)	0.73 (0.44, 1.02)	1.00 (0.37, 1.62)	0.17 (0.13, 0.21)	0.33 (0.23, 0.43)	0.70 (0.33, 1.06)	0.18 (0.13, 0.22)	0.38 (0.26, 0.49)	0.85 (0.40, 1.29)	–	–
5	Cc1cccc(C)c1OCC(=O)N[C@@H](Cc1ccccc1)[C@@H](O)C[C@H](Cc1ccccc1)NC(=O)[C@H](C(C)C)N1CCCNC1=O [Lopinavir]	0.68 (0.49, 0.87)	0.80 (0.48, 1.11)	0.95 (0.36, 1.55)	0.74 (0.57, 0.92)	0.56 (0.37, 0.74)	0.42 (0.21, 0.64)	0.65 (0.44, 0.86)	0.77 (0.43, 1.11)	0.92 (0.28, 1.57)	Additive-	–
6	Cc1c(O)cccc1C(=O)N[C@@H](CSc1ccccc1)[C@H](O)CN1C[C@H]2CCCC[C@H]2C[C@H]1C(=O)NC(C)(C)C [Nelfinavir]	0.38 (6.31, 0.46)	0.56 (0.47, 0.72)	0.83 (0.47, 1.18)	0.56 (0.46, 0.65)	0.89 (0.68, 1.10)	1.43 (0.89, 1.97)	0.17 (0.13, 0.21)	0.40 (0.29, 0.52)	0.95 (0.49, 1.42)	Additive-	–
